From PMC5654082 (Malaria Journal, 2017)
Counter-ions that a name gives are not always drawn.

Biological target: T1, human OCT1 (Homo sapiens, UniProt O15245)
T1 construct: host or cells: HEK293, baculovirus transduction (CMV promoter), transient
T1 sequence (O15245 1-554): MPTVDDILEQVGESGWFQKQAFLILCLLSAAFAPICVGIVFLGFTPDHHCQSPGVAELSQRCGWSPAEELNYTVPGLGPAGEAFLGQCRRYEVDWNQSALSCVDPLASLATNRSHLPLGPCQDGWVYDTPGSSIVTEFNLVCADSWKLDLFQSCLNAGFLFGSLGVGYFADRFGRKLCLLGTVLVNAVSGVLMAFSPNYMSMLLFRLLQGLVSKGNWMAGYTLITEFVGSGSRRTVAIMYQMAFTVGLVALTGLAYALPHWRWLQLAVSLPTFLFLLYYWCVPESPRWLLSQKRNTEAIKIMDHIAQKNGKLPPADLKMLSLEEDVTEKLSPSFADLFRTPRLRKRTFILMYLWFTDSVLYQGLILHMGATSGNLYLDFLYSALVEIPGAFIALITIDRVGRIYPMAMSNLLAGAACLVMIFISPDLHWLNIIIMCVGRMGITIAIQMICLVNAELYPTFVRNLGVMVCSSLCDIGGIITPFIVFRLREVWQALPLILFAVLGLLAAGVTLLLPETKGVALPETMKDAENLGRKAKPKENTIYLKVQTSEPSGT
Test: Inhibition of OCT1-mediated ASP uptake in transduced HEK293 cells
Assay type: cell-based
Conditions: 50 µM anti-malarial, 10 µM ASP, 10 min, 37 °C; relative to solvent control fixed at 100%
Experimental: HEK293 cells were modified to transiently express (a combination of) human OCT1, OCT2, MATE1, MATE2-K, or eYFP. Briefly, cDNA of the respective genes was cloned downstream of a CMV promoter into a baculovirus, of which passage three was used to transduce HEK293 cells. These cells were seeded in poly-D-lysine coated 24- or 96-wells plates and grown in a 37 °C incubator at 5% CO2. Growth was initiated at ~ 25% confluency using 375 or 125 μL cell and complete medium (DMEM + GlutaMAX™-I supplemented with 10% fetal bovine serum) suspension per well, respectively. After 24 h, cells were transduced with 30 µL virus (10 µL virus + 20 µL complete medium in case of 96-wells plates) or 2 × 15 µL virus for cells that required simultaneous expression of two transporters. Finally, 195 µL sodium butyrate (45 µL for 96-wells plates) was added to a final concentration of 2 mM to enhance protein expression.
AMO (10 mM), ASP (1 mM), CQ (10 mM), PQ (10 mM) and PG (10 mM) were dissolved in MilliQ water. ART (10 mM), ATO (10 mM), DHA (10 mM), LUM (10 mM), MQ (10 mM), NMQ (20 mM), PYR (10 mM), QN (10 mM) were dissolved in DMSO. All compound stocks were stored at − 20 °C. Inhibition of OCT1- or OCT2-mediated ASP uptake by anti-malarials was performed in poly-D-lysine coated 96-wells plates 2 or 3 days following HEK293 cell transduction. In short, cells were washed with 125 µL 37 °C HBSS containing 10 mM HEPES, pH 7.4. Then, a 50 µL mixture of ASP (10 µM) and anti-malarial compound (25, 50 or 100 µM) in HBSS buffer (pH 7.4) was added to each well and incubated for 10 min at 37 °C. ASP transport was stopped by washing with 125 µL ice-cold HBSS-HEPES buffer supplemented with 0.5% BSA. Following a second wash with 125 µL ice-cold HBSS-HEPES buffer, cells were lysed with 125 µL 1 M NaOH and ASP was excited at a wavelength of 485 nm and fluorescence was detected at an emission wavelength of 535 nm using the Victor X3 multimode plate reader.
For each compound, a range of seven concentrations was used to determine the concentration at which ASP uptake was inhibited half maximally (IC50). At least three independent experiments (4 for QN) were performed for each drug in triplicate as described above. Inhibition curves were plotted by nonlinear regression analyses of the data using GraphPad Prism version 5.03. […] To generate the final dose–response inhibition curve per anti-malarial, percentage of uptake was averaged for each drug concentration per experiment and the resulting mean ± SEM corresponding to three or four independent experiments were plotted.

For `[H]/N=C(\N/C(=N/[H])Nc1ccc(Cl)cc1)NC(C)C` [Proguanil, proguanil hydrochloride], the “Relative ASP uptake (OCT1-mediated)” value was 60 ± 7%.
